Laboratory results published in patent US10800778B2 (Entasis Therapeutics Limited, priority 2016, dated 2020).

Experiments:
[1] = Stability in pH 7.4 buffer (no enzyme); assay type: physicochemical; conditions: read-out: T1/2 pH 7.4 Buffer
Method: (§1) The human intestinal S9 with the absence of PMSF, human liver S9, rat intestinal S9, and rat liver S9 preparations were obtained from Xenotech (Lenexa, Kans.). The 500-μL incubation solution contained 0.8 mg/mL of enzyme (or no enzyme for buffer stability), 10 μM of test compounds in 100 mM of HEPES buffer, pH 7.4. The hydrolysis reactions were conducted in a 1-mL glass insert (Analytical Sales, Pompton Plains, N.J.) in a shake water bath at 37° C. At 0, 2, 5, 10, 15, 30 and 60 min, the reaction was terminated by pipetting 50 μL incubate to a 96 DeepWell plate (Thermo Fisher Scientific, Rochester, N.Y.) containing 100 μL of acetonitrile with 250 ng/mL of Carbutamide (Sigma-Aldrich, St. Louis, Miss.) as the internal standard. The crashed solutions were then vortexed well followed by centrifuge at 4000 rpm for 15 min at 4° C. The extract was transferred to a new 96 DeepWell plate for LC-MS/MS analysis.
(§2) LC-MS/MS analysis was done using an AB Sciex QTrap 6500 mass spectrometer under positive ionization mode, coupled to a Schimadzu Nexera LC system.
(§3) A Waters Atlantis T3 (3 μm, 3.0×50 mm) column was used for separation. The mobile phase consisted 0.1% formic acid in water (A) and 0.1% formic acid in acetonitrile (B) with a flow rate set at 1.2 mL/min. For the prodrug analysis, the Multiple Reaction Monitoring (MRM) specific for each compound was set up so that both prodrug and its hydrolyzed active can be monitored simultaneously.
(§4) Half-lives listed are based on disappearance of starting ester.

[2] = Stability/conversion of esters in rat liver S9; assay type: in vitro ADME
Method: as §1, §2, §3, §4

[3] = Stability/conversion of esters in human liver S9; assay type: in vitro ADME
Method: as §1, §2, §3, §4

[4] = Stability/conversion of esters in rat intestinal S9; assay type: in vitro ADME
Method: as §1, §2, §3, §4

[5] = Stability/conversion of esters in human intestinal S9; assay type: in vitro ADME
Method: as §1, §2, §3, §4

[6] = liver S9, pH 7.4, read-out: T1/2 Rat Liver S9
[7] = liver S9, pH 7.4, read-out: T1/2 Human Liver S9
[8] = intestinal S9, pH 7.4, read-out: T1/2 Rat Intestinal S9
[9] = intestinal S9 (without PMSF), pH 7.4, read-out: T1/2 Human Intestinal S9
[10] = s9, pH 7.4, read-out: T1/2 Rat Liver S9
[11] = s9, pH 7.4, read-out: T1/2 Human Liver S9
[12] = s9, pH 7.4, read-out: T1/2 Rat Intestinal S9
[13] = s9, pH 7.4, read-out: T1/2 Human Intestinal S9

Compound | half-life at 10 μM ([1]; HEPES buffer without enzyme) | half-life at 10 μM [2, 6] | half-life at 10 μM [3, 7] | half-life at 10 μM [4, 8] | half-life at 10 μM [5, 9] | half-life at 10 μM ([1]; buffer) | half-life at 10 μM [2, 10] | half-life at 10 μM [3, 11] | half-life at 10 μM [4, 12] | half-life at 10 μM [5, 13]
CC1=C[C@@H](C(N)=O)N2C[C@@H]1N(OCC(=O)OC(C)C)C2=O [Example 96, isopropyl 2-(((2S,5R)-2-carbamoyl-4-methyl-7-oxo-1,6-diazabicyclo[3.2.1]oct-3-en-6-yl)oxy)acetate] | > 100 min | 10.3 min | 57 min | 211 min | 1480 min |  |  |  |  | 
CC1=C[C@@H](C(N)=O)N2C[C@@H]1N(O[C@@H](F)C(=O)OC(C)C)C2=O [Example 36, (2S)-isopropyl 2-(((2S,5R)-2-carbamoyl-4-methyl-7-oxo-1,6-diazabicyclo[3.2.1]oct-3-en-6-yl)oxy)-2-fluoroacetate] |  |  |  |  |  | 91 min | 3 min | 8.5 min | 68 min | 36 min
CCCCCCOC(=O)[C@@H](F)ON1C(=O)N2C[C@H]1C=C(C)[C@H]2C(N)=O [Example 52, hexyl (2R)-2-[[(2S,5R)-2-carbamoyl-3-methyl-7-oxo-1,6-diazabicyclo[3.2.1]oct-3-en-6-yl]oxy]-2-fluoro-acetate] | 76 min | 0.45 min | 0.84 min | 39 min | 5.7 min |  |  |  |  | 
CCOC(=O)[C@@H](F)ON1C(=O)N2C[C@H]1C(C)=C[C@H]2C(N)=O [Example 31, (2R)-ethyl 2-(((2S,5R)-2-carbamoyl-4-methyl-7-oxo-1,6-diazabicyclo[3.2.1]oct-3-en-6-yl)oxy)-2-fluoroacetate] |  |  |  |  |  | 44 min | 20 min | 27 min | 42 min | 35 min
CCOC(=O)[C@@H](F)ON1C(=O)N2C[C@H]1C=C(C)[C@H]2C(N)=O [Example 1, (R)-ethyl 2-((2S,5R)-2-carbamoyl-3-methyl-7-oxo-1,6-diazabicyclo[3.2.1]oct-3-en-6-yloxy)-2-fluoroacetate] |  |  |  |  |  | 41 min | 4.4 min | 6.5 min | 39 min | 38 min
CCOC(=O)[C@@H](F)ON1C(=O)N2C[C@H]1C=C(C)[C@H]2C(=O)NCO [Example 86, ethyl (2R)-2-fluoro-2-[[(2S,5R)-2-(hydroxymethylcarbamoyl)-3-methyl-7-oxo-1,6-diazabicyclo[3.2.1]oct-3-en-6-yl]oxy]acetate] | 39 min | 23 min | 24 min | 43 min | 36 min |  |  |  |  | 
CCCCCCCCOC(=O)[C@@H](F)ON1C(=O)N2C[C@H]1C=C(C)[C@H]2C(N)=O [Example 45, octyl (2R)-2-[[(2S,5R)-2-carbamoyl-3-methyl-7-oxo-1,6-diazabicyclo[3.2.1]oct-3-en-6-yl]oxy]-2-fluoro-acetate] | 33 min | 0.22 min | 0.39 min | 17 min | 2 min |  |  |  |  | 

Now from value to molecule, other results behind:

half-life at 10 μM ([1]; HEPES buffer without enzyme) | half-life at 10 μM [2, 6] | half-life at 10 μM [3, 7] | half-life at 10 μM [4, 8] | half-life at 10 μM [5, 9] | Compound | half-life at 10 μM ([1]; buffer) | half-life at 10 μM [2, 10] | half-life at 10 μM [3, 11] | half-life at 10 μM [4, 12] | half-life at 10 μM [5, 13]
3.9 min | 0.5 min | 0.8 min | 3.9 min | 2.4 min | CCOC(=O)C(F)(F)ON1C(=O)N2C[C@H]1C=C(C)[C@H]2C(N)=O [Example 7, ethyl {[(2S,5R)-2-carbamoyl-3-methyl-7-oxo-1,6-diazabicyclo[3.2.1]oct-3-en-6-yl]oxy}(difluoro)acetate] |  |  |  |  | 
161 min | 11 min | 24.8 min | 397 min | 193 min | CCOC(=O)CON1C(=O)N2C[C@H]1C(C)=C[C@H]2C(N)=O [Example 92, ethyl 2-(((2S,5R)-2-carbamoyl-4-methyl-7-oxo-1,6-diazabicyclo[3.2.1]oct-3-en-6-yl)oxy)acetate] |  |  |  |  | 
18.3 min | 1.4 min | 2.9 min | 27.3 min | 17.8 min | CCOC(=O)CON1C(=O)N2C[C@H]1C=C(C)[C@H]2C(N)=O [Example 9, ethyl {[(2S,5R)-2-carbamoyl-3-methyl-7-oxo-1,6-diazabicyclo[3.2.1]oct-3-en-6-yl]oxy}acetate] |  |  |  |  | 
18 min | 7 min | 9.2 min | 16 min | 15 min | COCCOC(=O)[C@@H](F)ON1C(=O)N2C[C@H]1C=C(C)[C@H]2C(N)=O [Example 18, 2-methoxyethyl (2R)-{[(2S,5R)-2-carbamoyl-3-methyl-7-oxo-1,6-diazabicyclo[3.2.1]oct-3-en-6-yl]oxy}(fluoro)ethanoate] |  |  |  |  | 
4.8 min | 2 min | 1.7 min | 4.2 min | < 1 min | CC1=C[C@@H]2CN(C(=O)N2O[C@H](F)C(=O)OC(C)OC(=O)OC(C)C)[C@@H]1C(N)=O (stereo partly drawn) [Example 53, 1-isopropoxycarbonyloxyethyl (2R)-2-[[(2S,5R)-2-carbamoyl-3-methyl-7-oxo-1,6-diazabicyclo[3.2.1]oct-3-en-6-yl]oxy]-2-fluoro-acetate] |  |  |  |  | 
